# Laboratory results published in patent US6737407B1, “Treatment of obesity” (Metabolic Pharmaceuticals, Ltd., priority 1997, dated 2004).
# Where no end group is shown, it is not given here.
# Tests used:
# C57BL/6J (ob/ob) mice = experiment: Plasma triglyceride and total cholesterol in obese mice after 18-day chronic treatment; format: in vivo, mouse; settings: for Plasma total cholesterol / Plasma triglyceride: after 18-day treatment
# Method: The animals were anaesthetised with sodium pentobarbitone (80 mg/kg body weight) 12 hr after the last dose of hGH 177-191. Blood samples were collected from the tail vein of anaesthetised animals 45 mins after the administration of anaesthetic. After being centrifuged at 2000×g for 5 minutes, plasma was removed from the samples and used for metabolite assays. Triglyceride and total cholesterol in plasma were measured by enzyme-spectrophotometric methods. The reagents are based on either a modified glycerol phosphate oxidase (GPO)-Trinder's type colour reaction^24 or a cholesterol oxidase-4-aminoantipyrine method^25. All assays were performed with the CentrifiChem System 400 (Union Carbide) containing an automated pipetter, a centrifugal analyser and a recording spectrophotometer. Seronorm Lipid (Nycomed Pharma Co., Oslo, Norway) was used as the calibrator.
# [1] = test system: Human Subcutaneous adipose Tissue; experiment: Lipolytic activity in human subcutaneous adipose tissue; format: cell-based; settings: 0.5 μM peptide
# Method: Adipose tissues were removed from animals and sliced into segments of approximately 200 mg each. Then the tissues were pre-incubated in 25 ml vials containing 2 ml of Krebs-Ringerbicarbonate (KRB) buffer, 4% defatted BSA and 5.5 mM glucose under an atmosphere of carbogen (95%O2/ 5%CO2) at 37° C. for 1 hour. Tissues were then transferred to another vials with fresh medium and the incubation was initiated by adding hGH 177-191 peptide or analogues into the vials. The mixtures were then incubated at 37° C. for 90 minutes. After incubation, the tissues wee removed and aliquots (200 μl) of samples withdrawn from the medium were assayed for the contents of glycerol or free fatty acid (FFA) either by the enzyme assay (glycerol kinase) or calorimetric (copper-dye) spectrometry. The NADH or color produced was then monitored by the absorption at 340 nm and 610 nm, respectively.
# Tables 6 and 7 show the in vitro antilipogenic and lipolytic activity of hGH 177-191 and two representative analogues (Ref Nos. 9604 and 9605) on human adipose tissue.
# acetyl-CoA carboxylase = experiment: Acetyl-CoA carboxylase assay in isolated adipocytes and hepatocytes; format: cell-based, rat
# Method: Acetyl-CoA carboxylase catalyzes the critical step in fatty acid synthesis. The acetyl-CoA carboxylase activities of both isolated adipocytes and hepatocytes in the presence of hGH 177-191 peptide or analogues were measured for the evaluation of the anti-lipogenic effect of the peptides. The acetyl-CoA carboxylase activity was determined by the [C^14]-bicarbonate fixation reaction—the rate of incorporation of acetyl-CoA dependent H[C^14]O3 into [C^14]-malonyl-CoA.
# Adipocytes were prepared with the method described in the HSL assay. Hepatocytes were prepared from the livers of male Wistar rats by collagenase digestion. The liver was finely-cut with scissors and transferred to a 250 ml Erlenmeyer flask containing 30 ml of digestion medium. The digestion medium contained microbial collagenase (Type IV) at a concentration of 30 mg/ml in calcium-free Krebs-Ringer phosphate buffer (pH 7.4) and glucose (5 mM). […]
# The isolated cells were first preincubated at 37° C. for 30 minutes in a mixture containing 50 mM Tris-HCl buffer (pH 7.5), 10 mM potassium citrate, 10 mM MgCl2, 1 mM dithiothreitol (DTT), and BSA (0.8 mg/ml). […] The [C^14] radioactivity was measured with a liquid scintillation counter. […] Specific activity of the enzyme was expressed as mU/g cell dry weight, where 1 U of acetyl-CoA carboxylase was defined as that amount which catalyzed the carboxylation of 1 μmole acetyl-CoA per minute.
# [2] = test system: isolated adipose tissues of C57BL/6J (ob/ob) mice; experiment: Oxidation of free fatty acid in isolated adipose tissues; format: cell-based, mouse; settings: adipose tissues isolated from obese animals, FIG. 7
# Method: FIG. 7 illustrates the in vitro effect of hGH 177-191 on fatty acid oxidation in isolated adipose tissues of C57BL/6J (ob/ob) mice with the determination of the rate of [C^14]O2 production from [C^14]-palmitic acid. The rate of [C^14]-palmitic acid oxidation was expressed as μmol/g tissue/hr.
# The effect of hGH 177-191 or analogues on the free fatty acid (FFA) oxidation in the adipose tissues is evaluated by the measure of converted [C^14]O2 from C^14-palmitic acid. The [C^14]O2 a final product of FFA oxidation, was trapped by hyamine hydroxide and measured by liquid scintillation counter. The rate of FFA oxidation was then determined by [C^14] radioactivity.
# Adipose tissues removed from laboratory animals were sliced into segments of approximately 200 mg each. The tissues in 25 ml vials containing 2 ml of Krebs-Ringer phosphate (KRP) buffer, and 2% defatted bovine serum albumin (BSA) were pre-incubated at 37° C. for 30 minutes under an atmosphere of carbogen (95%O2/5%CO2) Then the tissues were transferred to Konte flasks with fresh incubation medium with 0.15 mM sodium [C^14]-palmitate (final [C^14]-specific activity, 0.20 μCi/μmol) and hGH 177-191 peptide or analogues (1-1000 nM). […] The [C^14] radioactivity was measured with a liquid scintillation counter. The rate of [C^14]-palmitic acid oxidation to [C^14]O2 was calculated and expressed as μmol/g tissue/hr.
sequence,measurement,setting,value
LRIVQCRSVEGSCGF (cysteine pairing not given here) [Ref No. 9401],plasma levels of triglyceride versus control (in words),"C57BL/6J (ob/ob) mice; both sexes, ob/ob mice",did not influence
same,plasma levels of cholesterol versus control (in words),C57BL/6J (ob/ob) mice; female ob/ob mice,only slightly lower
same,Plasma total cholesterol,C57BL/6J (ob/ob) mice; female ob/ob mice,2.84 ± 0.29 mmol/L
same,Plasma triglyceride,C57BL/6J (ob/ob) mice; female ob/ob mice,0.38 ± 0.11 mmol/L
same,Plasma triglyceride,C57BL/6J (ob/ob) mice; male ob/ob mice,0.58 ± 0.16 mmol/L
same,Plasma total cholesterol,"C57BL/6J (ob/ob) mice; male ob/ob mice, listed as hGH 177-191",3.52 ± 0.39 mmol/L
same,Glycerol released,[1],1000 ± 80 nmol/mg tissue/hour
same,effect on acetyl CoA carboxylase (in words),acetyl-CoA carboxylase,inhibiting
same,oxidation of fatty acids (in words),[2],enhanced
